Reference: publication PMC7301841, “LuxR Solos in the Plant Endophyte Kosakonia sp. Strain KO348” (Applied and Environmental Microbiology, 2020)

Tests used:
LoxR [1] = target: T1, LoxR (Kosakonia pseudosacchari, UniProt A0ABX4IX59); assay: co-purification of complex (Ni-NTA, gel filtration), LC-MS/MS detection of coeluting AHL; ligand-dependent solubility; type: binding; conditions: expressed with 10 uM AHL, 16°C; pH 8.5
T1 construct: gene BK796_01250; full-length, His6-tagged (pET22b NdeI/XhoI, tag at C-terminus by vector), E. coli BL21(DE3) pLysS; forward primer encodes N-terminus MQDTEFFT
T1 sequence (A0ABX4IX59 entry or part of it): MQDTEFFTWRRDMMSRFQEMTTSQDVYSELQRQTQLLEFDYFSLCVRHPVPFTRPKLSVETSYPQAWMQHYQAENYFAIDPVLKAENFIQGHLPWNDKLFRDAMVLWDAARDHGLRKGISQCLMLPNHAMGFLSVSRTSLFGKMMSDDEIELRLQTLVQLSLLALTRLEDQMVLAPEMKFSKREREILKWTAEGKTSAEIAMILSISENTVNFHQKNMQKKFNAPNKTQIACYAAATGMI

LoxR [2] = target: T1, LoxR; assay: ligand-dependent solubility on expression in E. coli (total extract vs soluble fraction); type: cell-based; conditions: expressed in E. coli in presence of AHL, 0.2 mM IPTG, 37°C overnight

CCCCCC(=O)N[C@H]1CCOC1=O [C6-HSL]
co-purification of complex (Ni-NTA, gel filtration), LC-MS/MS detection of coelu (LoxR [1]): It was therefore concluded that AHLs solubilize and bind to LoxR.

CCCCCCCCCC(=O)N[C@H]1CCOC1=O [C10-HSL]
ligand-dependent solubility on expression in E. coli (total extract vs soluble f) (LoxR [2]): LoxR was soluble when bound and insoluble when unbound to AHLs

CCCC(=O)CC(=O)N[C@H]1CCOC1=O [OC6-HSL]
ligand-dependent solubility on expression in E. coli (total extract vs soluble f) (LoxR [2]): LoxR was soluble when bound and insoluble when unbound to AHLs

CCCCCC(=O)CC(=O)N[C@H]1CCOC1=O [OC8-HSL]
ligand-dependent solubility on expression in E. coli (total extract vs soluble f) (LoxR [2]): LoxR was soluble when bound and insoluble when unbound to AHLs

CCCCCCCCCC(=O)CC(=O)N[C@H]1CCOC1=O [OC12-HSL]
co-purification of complex (Ni-NTA, gel filtration), LC-MS/MS detection of coelu (LoxR [1]): OC12-HSL was also able to solubilize LoxR (data not shown)

CCCC(O)CC(=O)N[C@H]1CCOC1=O (stereo partly drawn) [OHC6-HSL]
ligand-dependent solubility on expression in E. coli (total extract vs soluble f) (LoxR [2]): LoxR was soluble when bound and insoluble when unbound to AHLs
